As usually defined, the IC50 is the concentration that inhibits the measured activity by half.

The structures appear in SMILES notation.

Experimental findings from ChEMBL document CHEMBL5352506, “The Zinc-Binding Group Effect: Lessons from Non-Hydroxamic Acid Vorinostat Analogs” (J Med Chem, 2023) are described below.

In one assay the target is Histone deacetylase 1 (Homo sapiens, UniProt Q13547). In words: Inhibition of human recombinant HDAC1 using ArgHisLysLys(Ac) as substrate by fluorescence based analysis.
Chain of Histone deacetylase 1 (Q13547 whole entry): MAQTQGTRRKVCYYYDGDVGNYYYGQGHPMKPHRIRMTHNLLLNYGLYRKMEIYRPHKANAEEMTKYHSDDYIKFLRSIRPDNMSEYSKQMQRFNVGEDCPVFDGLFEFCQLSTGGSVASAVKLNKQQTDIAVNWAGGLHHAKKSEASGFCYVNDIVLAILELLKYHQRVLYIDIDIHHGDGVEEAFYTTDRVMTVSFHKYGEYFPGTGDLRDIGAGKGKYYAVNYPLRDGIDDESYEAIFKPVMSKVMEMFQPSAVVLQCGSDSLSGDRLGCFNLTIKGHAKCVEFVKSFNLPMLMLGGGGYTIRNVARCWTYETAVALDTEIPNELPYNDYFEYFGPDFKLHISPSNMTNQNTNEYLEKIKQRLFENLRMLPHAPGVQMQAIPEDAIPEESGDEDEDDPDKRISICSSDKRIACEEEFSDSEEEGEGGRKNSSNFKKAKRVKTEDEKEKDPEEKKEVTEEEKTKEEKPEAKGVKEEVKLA
Assay [1] has as its target T1, Protein deacetylase HDAC6 (Homo sapiens, UniProt Q9UBN7).
T1 sequence (Q9UBN7 whole entry): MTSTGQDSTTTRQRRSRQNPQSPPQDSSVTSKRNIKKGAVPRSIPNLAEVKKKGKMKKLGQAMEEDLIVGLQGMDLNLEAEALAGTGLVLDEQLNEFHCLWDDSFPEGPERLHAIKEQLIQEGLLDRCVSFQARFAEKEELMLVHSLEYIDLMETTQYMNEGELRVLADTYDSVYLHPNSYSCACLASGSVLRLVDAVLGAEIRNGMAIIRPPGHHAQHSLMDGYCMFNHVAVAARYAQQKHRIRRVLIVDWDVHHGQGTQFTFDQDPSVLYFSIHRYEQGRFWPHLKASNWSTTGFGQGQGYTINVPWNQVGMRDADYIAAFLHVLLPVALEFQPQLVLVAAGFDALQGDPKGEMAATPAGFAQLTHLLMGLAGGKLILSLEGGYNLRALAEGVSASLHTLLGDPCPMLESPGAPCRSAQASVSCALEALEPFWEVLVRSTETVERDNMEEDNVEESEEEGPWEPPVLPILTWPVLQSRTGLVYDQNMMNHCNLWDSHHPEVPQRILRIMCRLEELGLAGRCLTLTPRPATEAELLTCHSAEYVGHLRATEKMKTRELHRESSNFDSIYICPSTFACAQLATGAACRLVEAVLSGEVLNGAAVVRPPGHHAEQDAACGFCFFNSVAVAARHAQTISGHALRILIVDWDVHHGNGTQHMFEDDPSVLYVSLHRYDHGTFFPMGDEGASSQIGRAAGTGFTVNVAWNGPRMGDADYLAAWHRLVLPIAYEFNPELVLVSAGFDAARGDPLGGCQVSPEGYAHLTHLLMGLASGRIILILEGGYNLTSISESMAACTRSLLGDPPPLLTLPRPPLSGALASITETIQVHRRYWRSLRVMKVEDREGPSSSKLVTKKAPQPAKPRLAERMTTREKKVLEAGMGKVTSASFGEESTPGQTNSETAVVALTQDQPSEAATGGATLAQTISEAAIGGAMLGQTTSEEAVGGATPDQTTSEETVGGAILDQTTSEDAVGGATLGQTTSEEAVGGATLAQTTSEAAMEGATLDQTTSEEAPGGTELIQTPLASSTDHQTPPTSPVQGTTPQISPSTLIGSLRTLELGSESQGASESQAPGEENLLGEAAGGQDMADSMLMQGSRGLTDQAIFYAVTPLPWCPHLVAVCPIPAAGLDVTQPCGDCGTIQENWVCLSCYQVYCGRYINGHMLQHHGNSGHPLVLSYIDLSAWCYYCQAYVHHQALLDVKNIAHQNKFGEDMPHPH
In words: Inhibition of human recombinant HDAC6 using ArgHisLysLys(Ac) as substrate by fluorescence based analysis.

The target of another assay is Histone deacetylase 3 (Homo sapiens, UniProt O15379). Nature of the assay: Inhibition of human recombinant HDAC3 using ArgHisLysLys(Ac) as substrate by fluorescence based analysis.
Chain of Histone deacetylase 3 (O15379 whole entry): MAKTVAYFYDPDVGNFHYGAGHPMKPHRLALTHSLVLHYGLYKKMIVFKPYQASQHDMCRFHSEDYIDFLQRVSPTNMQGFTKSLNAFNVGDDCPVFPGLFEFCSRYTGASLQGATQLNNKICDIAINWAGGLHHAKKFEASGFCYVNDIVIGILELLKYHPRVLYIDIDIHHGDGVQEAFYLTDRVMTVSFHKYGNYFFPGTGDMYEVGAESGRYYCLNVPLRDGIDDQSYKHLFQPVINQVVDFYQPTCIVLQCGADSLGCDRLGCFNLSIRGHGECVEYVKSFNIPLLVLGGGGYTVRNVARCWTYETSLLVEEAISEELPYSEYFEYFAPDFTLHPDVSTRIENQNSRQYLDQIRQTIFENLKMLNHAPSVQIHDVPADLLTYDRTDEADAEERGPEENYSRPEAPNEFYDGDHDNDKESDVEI
In assay [2] the target is T2, Polyamine deacetylase HDAC10 (Homo sapiens, UniProt Q969S8).
T2 sequence (Q969S8 whole entry): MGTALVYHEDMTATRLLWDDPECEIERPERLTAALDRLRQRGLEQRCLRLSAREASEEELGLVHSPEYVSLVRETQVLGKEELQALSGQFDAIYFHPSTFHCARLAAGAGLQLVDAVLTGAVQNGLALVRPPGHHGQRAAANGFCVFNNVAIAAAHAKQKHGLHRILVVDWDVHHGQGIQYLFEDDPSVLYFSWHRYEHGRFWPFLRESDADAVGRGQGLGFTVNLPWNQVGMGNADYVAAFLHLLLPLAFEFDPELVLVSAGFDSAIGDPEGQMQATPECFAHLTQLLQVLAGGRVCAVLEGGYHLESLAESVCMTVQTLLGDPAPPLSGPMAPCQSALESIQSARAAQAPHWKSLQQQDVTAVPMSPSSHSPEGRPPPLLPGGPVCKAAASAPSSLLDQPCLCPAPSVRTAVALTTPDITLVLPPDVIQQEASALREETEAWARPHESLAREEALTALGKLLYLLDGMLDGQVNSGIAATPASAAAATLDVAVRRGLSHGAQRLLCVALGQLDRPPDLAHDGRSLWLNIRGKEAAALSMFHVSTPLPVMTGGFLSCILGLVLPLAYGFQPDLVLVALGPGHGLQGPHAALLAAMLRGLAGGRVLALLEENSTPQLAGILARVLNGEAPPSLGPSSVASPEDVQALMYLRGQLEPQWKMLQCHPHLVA
In words: Inhibition of human recombinant HDAC10 using ArgHisLysLys(Ac) as substrate by fluorescence based analysis.

Take `O=C(CCCCC[C@@H]1CN(O)C1=O)Nc1ccccc1`: the IC50 at Histone deacetylase 1 is over 1 mM; in assay [1] it was 0.132 mM; at Histone deacetylase 3, over 1 mM; in assay [2] it was over 1 mM.
Turning to `Nc1ccccc1N1CC(CCCCCC(=O)Nc2ccccc2)C1=O` (stereo unspecified), the IC50 (on Histone deacetylase 1; in assay [1]; on Histone deacetylase 3; in assay [2]) was over 1 mM in each case.
Consider `O=C(CCCCC[C@H]1CN(O)C1=O)Nc1ccccc1`, for which the half-maximal inhibitory concentration (IC50) is over 1 mM at Histone deacetylase 1, 0.174 mM in assay [1], over 1 mM at Histone deacetylase 3 and over 1 mM in assay [2].
Regarding `O=C(CCCCCC1CNC1=O)Nc1ccccc1` (stereo unspecified), the IC50 on Histone deacetylase 1 was over 1 mM; in assay [1], 0.0745 mM; at Histone deacetylase 3, over 1 mM; in assay [2] it was over 1 mM.
